Values after ≈ are worked out from the molar mass of the structure shown.
Tests used:
[1] = tested on: Mycobacterium tuberculosis; assay: Antimycobacterial activity against Mycobacterium tuberculosis H37Rv in GAST medium with low Fe level measured at day 14 by Alamar Blue assay; assay type: functional; settings: 336 h
[2] = Kinetic solubility of the compound at pH 7.4 after 2 hrs by shake flask method-based HPLC-DAD analysis; assay type: physicochemical; settings: buffer, read-out: Kinetic_solubility
[3] = tested on: Mycobacterium tuberculosis; assay: Antimycobacterial activity against Mycobacterium tuberculosis H37Rv in 7H9/ADC/Tween medium measured at day 14 by Alamar Blue assay; assay type: functional; settings: 336 h
CHO = assay: Cytotoxicity against CHO cells assessed as cell viability by MTT assay; assay type: cell-based; settings: Cricetulus griseus
[4] = tested on: Mycobacterium tuberculosis; assay: Antimycobacterial activity against Mycobacterium tuberculosis H37Rv in GAST-Fe medium measured at day 14 by Alamar Blue assay; assay type: functional; settings: 336 h
[5] = Metabolic stability in mouse liver microsomes assessed as compound remaining at 0.1 uM measured at 30 mins by LC-MS/MS analysis; assay type: ADME; settings: read-out: Stability
[6] = Metabolic stability in rat liver microsomes assessed as compound remaining at 0.1 uM measured at 30 mins by LC-MS/MS analysis; assay type: ADME; settings: read-out: Stability
[7] = Metabolic stability in human liver microsomes assessed as compound remaining at 0.1 uM measured at 30 mins by LC-MS/MS analysis; assay type: ADME; settings: read-out: Stability

Structure (SMILES)	MIC99 [1]	solubility kinetic at 2 h [2]	MIC99 [3]	IC50 (CHO)	MIC99 [4]	remaining at 0.5 h, 0.1 µM [5]	remaining at 0.5 h, 0.1 µM [6]	remaining at 0.5 h, 0.1 µM [7]
Cc1cc(NCc2ccccn2)n2ncc(-c3ccccc3F)c2n1	> 160 µM	5 µM (≈ 1.67 µg/mL)	2.5 µM (≈ 0.833 µg/mL)	5.45 µM	> 160 µM			
Cc1cc(NCc2ccccn2)n2ncc(-c3ccc(F)c(Cl)c3)c2n1	> 160 µM	< 5 µM	1.25 µM (≈ 0.46 µg/mL)	20 µM	> 160 µM			
Cc1cc(NCc2ccccn2)n2ncc(-c3ccccc3C)c2n1		< 5 µM	1.25 µM (≈ 0.412 µg/mL)					
Cc1cc(NCc2ccccn2)n2ncc(-c3c(C)cccc3C)c2n1		< 5 µM	> 160 µM					
Cc1cc(NCc2ccccn2)n2ncc(-c3ccc(F)cc3F)c2n1		< 5 µM	> 160 µM					
Cc1cc(NCc2ccccn2)n2ncc(-c3cc(F)c(F)c(F)c3)c2n1		< 5 µM	2.5 µM (≈ 0.923 µg/mL)					
Cc1cc(NCc2ccccn2)n2ncc(-c3ccco3)c2n1		48.8 µM (≈ 14.9 µg/mL)	40 µM (≈ 12.2 µg/mL)					
Cc1cc(NCc2ccccn2)n2ncc(-c3ccsc3)c2n1		9 µM (≈ 2.89 µg/mL)	20 µM (≈ 6.43 µg/mL)					
Cc1cc(NCc2ccccn2)n2ncc(-c3ccncc3)c2n1		161 µM (≈ 51 µg/mL)	> 160 µM					
Cc1cc(NCc2ccccn2)n2ncc(-c3ccn(C)n3)c2n1		188 µM (≈ 60 µg/mL)	> 160 µM					
Cc1cc(NCc2ccccn2)n2ncc(-c3ccc(C(=O)Nc4ccccc4)cc3)c2n1		5 µM (≈ 2.17 µg/mL)	> 160 µM					
Cc1cc(NCc2ccccn2)n2nc(C)c(Nc3ccccc3)c2n1		7.8 µM (≈ 2.69 µg/mL)	40 µM (≈ 13.8 µg/mL)					
Cc1cc(NCc2ccccn2)n2ncc(C3=CCC(F)(F)CC3)c2n1		5 µM (≈ 1.78 µg/mL)	5 µM (≈ 1.78 µg/mL)					
Cc1cc(NCc2ccccn2)n2ncc(C3=CCOCC3)c2n1		171 µM (≈ 54.9 µg/mL)	80 µM (≈ 25.7 µg/mL)					
Cc1cc(NCc2ccccn2)n2ncc(Br)c2n1		89.3 µM (≈ 28.4 µg/mL)	> 160 µM					
Cc1cc(NCc2ccccn2)n2nc(C)cc2n1		> 200 µM	5 µM (≈ 1.27 µg/mL)					

Structure (SMILES)	MIC99 [1]	solubility kinetic at 2 h [2]	MIC99 [3]	IC50 (CHO)	MIC99 [4]	remaining at 0.5 h, 0.1 µM [5]	remaining at 0.5 h, 0.1 µM [6]	remaining at 0.5 h, 0.1 µM [7]
Cc1cc(NCC2CCCCN2)n2nc(C)c(-c3ccccc3)c2n1 (configuration not stated)		189 µM (≈ 63.3 µg/mL)	> 160 µM			14%	5.1%	51.8%
CCN1CCCC1CNc1cc(C)nc2c(-c3ccccc3)c(C)nn12 (configuration not stated)		172 µM (≈ 60.1 µg/mL)	> 160 µM					54%
Cc1cc(NCc2ccc(F)cn2)n2nc(C)c(-c3ccccc3)c2n1	> 160 µM	< 5 µM	5 µM (≈ 1.74 µg/mL)	22 µM	20 µM (≈ 6.95 µg/mL)	5.3%	45.5%	31.4%
Cc1cc(NCc2cccc[n+]2[O-])n2ncc(-c3ccccc3)c2n1		159 µM (≈ 52.7 µg/mL)	> 160 µM			12.3%	61.2%	99.7%
Cc1cc(NCc2nccn2C)n2nc(C)cc2n1		182 µM (≈ 46.7 µg/mL)	> 160 µM			85.1%	80.6%	100%
Cc1cc(NCc2ncnn2C)n2nc(C)c(-c3ccccc3)c2n1		185 µM (≈ 61.6 µg/mL)	> 160 µM			18.9%	68.8%	99.5%
Cc1cc(NCc2ccccn2)n2ncc(-c3ccc(O)cc3)c2n1		10.9 µM (≈ 3.61 µg/mL)	> 160 µM			41.4%	60.1%	99.3%
Cc1cc(NCc2ccccn2)n2ncc(-c3cccc(N)c3)c2n1		160 µM (≈ 52.8 µg/mL)	> 160 µM			55.1%	56.8%	89.5%
Cc1cc(NCc2ccccn2)n2ncc(-c3cccc(N(C)C)c3)c2n1		94.6 µM (≈ 33.9 µg/mL)	80 µM (≈ 28.7 µg/mL)			7.9%	4.5%	33.7%
Cc1cc(NCc2ccccn2)n2ncc(-c3cncnc3)c2n1		111 µM (≈ 35.2 µg/mL)	160 µM (≈ 50.8 µg/mL)					
Cc1cc(NCc2ccccn2)n2ncc(-c3ccc(C(=O)NCCN(C)C)cc3)c2n1		189 µM (≈ 81.3 µg/mL)	> 160 µM					
Cc1cc(NCc2ccccn2)n2nc(C)c(-c3cccnc3F)c2n1		< 5 µM	10 µM (≈ 3.48 µg/mL)			100%	96.5%	100%
Cc1cc(NCc2ccccn2)n2ncc(-c3ccc(F)cc3C)c2n1		42.3 µM (≈ 14.7 µg/mL)	> 160 µM					
NC[C@H]1O[C@H](O[C@H]2[C@H](O)[C@@H](O[C@H]3O[C@H](CO)[C@@H](O)[C@H](N)[C@H]3O)[C@H](N)C[C@@H]2N)[C@H](O)[C@@H](O)[C@@H]1O [KANAMYCIN]			6.45 µM (≈ 3.13 µg/mL)					
CO[C@H]1/C=C/O[C@@]2(C)Oc3c(C)c(O)c4c(O)c(c(/C=N/N5CCN(C)CC5)c(O)c4c3C2=O)NC(=O)/C(C)=C\C=C\[C@H](C)[C@H](O)[C@@H](C)[C@@H](O)[C@@H](C)[C@H](OC(C)=O)[C@@H]1C [RIFAMPIN]			0.012 µM (≈ 0.00988 µg/mL)					
